This experiment concerns the target Cytochrome P450 2E1 (Homo sapiens, UniProt P05181). In words: Spectral Binding Assay. An excerpt: All UV/Vis spectra of the enzyme-ligand complexes were obtained on a Cary 5000 UV/Vis spectrophotometer.
Cytochrome P450 2E1, sequence (P05181 whole entry): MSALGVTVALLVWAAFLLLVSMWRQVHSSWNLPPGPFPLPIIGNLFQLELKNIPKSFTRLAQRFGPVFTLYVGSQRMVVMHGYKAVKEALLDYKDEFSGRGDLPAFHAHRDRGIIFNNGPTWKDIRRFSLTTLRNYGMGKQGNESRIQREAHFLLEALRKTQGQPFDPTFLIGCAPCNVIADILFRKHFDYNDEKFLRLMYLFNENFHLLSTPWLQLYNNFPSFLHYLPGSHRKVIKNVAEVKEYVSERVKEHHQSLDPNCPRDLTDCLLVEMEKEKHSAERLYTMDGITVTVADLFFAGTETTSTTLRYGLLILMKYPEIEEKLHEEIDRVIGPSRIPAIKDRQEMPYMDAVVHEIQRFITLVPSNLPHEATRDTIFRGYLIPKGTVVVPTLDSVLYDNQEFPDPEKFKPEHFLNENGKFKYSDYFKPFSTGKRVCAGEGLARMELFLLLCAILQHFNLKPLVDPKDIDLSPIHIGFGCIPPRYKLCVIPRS
Molecule `CCCCCCOC(=O)c1cccnc1` [Auxiliary substrate, 1a] gave a Kd of 1400 nM.

As to `CCC(C)CCOC(=O)c1cccnc1` (stereo not drawn) [Auxiliary substrate, 10a], binding was put at a Kd of 2600 nM.

In turn, `CC(C)CCCCOC(=O)c1cccnc1` [Auxiliary substrate, 11a] came in with a Kd of 1800 nM.

As for `CCCCCOC(=O)c1cccnc1` [Auxiliary substrate, 12a], binding was put at a Kd of 5900 nM.

As to `CCCCCCCCOC(=O)c1cccnc1` [Auxiliary substrate, 14a], the Kd turned out to be 2100 nM.

For the molecule `CC/C=C/CCOC(=O)c1cccnc1` [Auxiliary substrate, 16a], the Kd came out at 1300 nM.

`C=CCCOC(=O)c1cccnc1` [Auxiliary substrate, 18a] had a Kd of 12000 nM.

Regarding `O=C(OCC1CCCC1)c1cccnc1` [Auxiliary substrate, 20a], the Kd came to 1600 nM.

(Values after BindingDB's records for doi:10.1002/cbic.201200524 (Mcgill University, 2012).)
